Data set [1] is described as follows: Plasma stability of TA/SA γ-MSH peptides in reconstituted human plasma. Type of data set: in vitro ADME. As to conditions: 37°C. Here is the method: For studies on the plasma stability of TA/SA γ-MSH, lyophilized citrated plasma from a pool of human donors was reconstituted in H2O as indicated by the manufacturer (# P9523, Sigma-Aldrich Chemie GmbH). Stability of human γ-MSH peptides was evaluated in fresh frozen human plasma (Interregional Blood Transfusion Swiss Red Cross Ltd, Epalinges, Swizerland). To this end, pooled samples of complete EDTA blood were centrifuged for 10 min at 1300 g, plasma was separated from buffy coat and erythrocytes and cleared by an additional 10 min centrifugation step at 1300 g. Cerebrospinal fluid pooled from ≥ 3 human donors was provided in liquid phase (# 991-19-P, Lee Biosolutions Inc., Maryland Heights, MO, USA). Aliquots of both body fluids were stored at -80°C until use. Samples of reconstituted plasma or CSF were thawed on ice, the pH of fresh frozen plasma was adjusted to 7.4 by addition of triethanolamine to a final concentration of 50 mM, and 45 μl aliquots were distributed to 1.5 ml Protein LoBind Tubes (Eppendorf AG, Hamburg, Germany). The γ-MSH synthetic peptides were pre-diluted in H2O to 20 μM, and 5 μl each were added on ice to 45 μl pre-laid samples of plasma or CSF. The γ-MSH starting concentration in degradation assays was thus 2 μM. Immediately after mixing, a first 5 μl aliquot for time point zero was removed, tubes were then transferred to a 37°C heat block, and further 5 μl aliquots were collected from plasma and CSF samples after various incubation times up to 68 h and 72.5 h, respectively. For control purposes, γ-MSH peptides were also diluted in H2O to a concentration of 2 μM and aliquots were removed after the corresponding incubation times at 37°C. All collected 5 μl aliquots were immediately diluted in 45 μl H2O and frozen on dry ice in 96 well V-bottom non-binding microplates (Greiner Bio-One Vacuette Schweiz GmbH, St. Gallen, Schweiz) to stop further degradation. After completion of degradation time courses, collection plates were stored at -80°C.
(§1) The residual TA/SA or human γ-MSH signaling activities were simultaneously analyzed on Glo-sensor and TA or human MC3R transfected HEK293T cells, respectively. […] Maximal luminescence values for the residual γ-MSH ligand activities were determined for all time points in the degradation time course, were baseline subtracted and normalized to the maximal luminescence value at time point zero for the same ligand in the same plate. All degradation time courses were performed in triplicate and read on three separate 96 well plates. […] Degradation curves were established by non-linear regression curve fit (least square fit) and half-lives determined from one phase decay curves. […]

Data set [2] in a line: Cerebrospinal fluid stability of γ-MSH peptides. Format: in vitro ADME. The conditions noted are these: pooled human CSF, 2 μM peptide, 37°C, up to 72 h, residual cAMP signaling on TA MC3R. Here is the method: (§2) For studies on the plasma stability of TA/SA γ-MSH, lyophilized citrated plasma from a pool of human donors was reconstituted in H2O as indicated by the manufacturer (# P9523, Sigma-Aldrich Chemie GmbH). Stability of human γ-MSH peptides was evaluated in fresh frozen human plasma (Interregional Blood Transfusion Swiss Red Cross Ltd, Epalinges, Swizerland). To this end, pooled samples of complete EDTA blood were centrifuged for 10 min at 1300 g, plasma was separated from buffy coat and erythrocytes and cleared by an additional 10 min centrifugation step at 1300 g. Cerebrospinal fluid pooled from ≥ 3 human donors was provided in liquid phase (# 991-19-P, Lee Biosolutions Inc., Maryland Heights, MO, USA). […]
as §1

A short description of data set [3]: Plasma stability of human γ-MSH peptides in fresh frozen human plasma. Format: in vitro ADME. The conditions noted are these: 37°C, non-glycosylated synthetic peptides. Here is the method:
as §2, §1

In another data set the test system is TA PC2 (with mouse 7B2). The data set can be described thus: supernatants of HEK293T cells transfected with TA PCSK2 and mouse 7B2 plasmids, 5 mM CaCl2, pH 5.5 (pH 4.1 to 8.1). The conditions noted are these: human (HEK293T); Tyto alba alba enzyme.
The next data set has as its system TA PC1/3. The data set is described as follows: supernatants of HEK293T cells transfected with TA PCSK1 plasmid, 5 mM CaCl2, pH 5.5 (pH 4.1 to 8.1). As to conditions: human (HEK293T); Tyto alba alba enzyme.
Data set [4] in a line: supernatants of mock-transfected HEK293T cells (IRES GFP-plasmid only). The conditions noted are these: human (HEK293T).
The nature of data set [5]: Cerebrospinal fluid pooled from ≥ 3 human donors. As to conditions: 37°C, up to 72.5 h.

Consider seven molecules from PMC7199972 (PLoS ONE, 2020).

Residues, ends and D or L forms follow the SMILES beside them.

In data set [1] (reconstituted pooled human plasma, 2 μM peptide, residual cAMP signaling on TA MC3R, one-phase decay, triplicate), `CSCC[C@H](NC(=O)[C@@H](NC(=O)[C@@H](N)Cc1ccc(O)cc1)C(C)C)C(=O)N[C@@H](CO)C(=O)N[C@@H](Cc1c[nH]cn1)C(=O)N[C@@H](Cc1ccccc1)C(=O)N[C@@H](CCCNC(=N)N)C(=O)N[C@@H](Cc1c[nH]c2ccccc12)C(=O)N[C@@H](CC(N)=O)C(=O)N[C@@H](CCCCN)C(=O)N[C@@H](Cc1ccccc1)C(=O)NCC(N)=O` [SA / TA γ2-MSH] (H-YVMSHFRWNKFG-NH2) displayed a plasma half-life of 0.45 h. The “half-life in human CSF” value in data set [2] is more than 7.5 h. In data set [2] (triplicate), the “stability in human cerebrospinal fluid” value was “stable for several hours”.
For the molecule `CSCC[C@H](NC(=O)[C@@H](NC(=O)[C@@H](N)Cc1ccc(O)cc1)C(C)C)C(=O)N[C@@H](CO)C(=O)N[C@@H](Cc1c[nH]cn1)C(=O)N[C@@H](Cc1ccccc1)C(=O)N[C@@H](CCCNC(=N)N)C(=O)N[C@@H](Cc1c[nH]c2ccccc12)C(=O)N[C@@H](CC(N)=O)C(=O)N[C@@H](CCCCN)C(=O)N[C@@H](Cc1ccccc1)C(=O)NCC(=O)N[C@@H](CCCNC(=N)N)C(=O)N[C@@H](CCCNC(=N)N)C(=O)N[C@@H](CC(N)=O)C(=O)N[C@@H](CO)C(=O)N[C@@H](CO)C(=O)N[C@@H](CO)C(=O)N[C@@H](CO)C(=O)N[C@@H](CO)C(=O)N[C@@H](CO)C(=O)N[C@@H](CO)C(=O)N[C@@H](CO)C(=O)N[C@@H](CO)C(=O)N[C@@H](CO)C(=O)N[C@@H](CO)C(=O)N[C@@H](CO)C(=O)N[C@@H](CO)C(=O)NCC(=O)NCC(=O)N[C@@H](Cc1c[nH]cn1)C(=O)O` [TA γ3-MSH 13 S] (H-YVMSHFRWNKFGRRNSSSSSSSSSSSSSGGH-OH), in data set [1] (reconstituted human plasma), the “plasma half-life, fold longer than that of γ2-MSH” value is recorded as 70 fold and the “plasma half-life, fold longer than that of γ3-MSH containing 5 serines” value is more than 6 fold. Moreover, the “plasma half-life (t1/2)” value in data set [1] (reconstituted lyophilized citrated pooled human plasma, 2 μM peptide, up to 68 h, residual cAMP signaling on TA MC3R/Glo-sensor HEK293T (luminescence), one-phase decay, triplicate) is more than 30 h.
Take `CSCC[C@H](NC(=O)[C@@H](NC(=O)[C@@H](N)Cc1ccc(O)cc1)C(C)C)C(=O)NCC(=O)N[C@@H](Cc1c[nH]cn1)C(=O)N[C@@H](Cc1ccccc1)C(=O)N[C@@H](CCCNC(=N)N)C(=O)N[C@@H](Cc1c[nH]c2ccccc12)C(=O)N[C@@H](CC(=O)O)C(=O)N[C@@H](CCCNC(=N)N)C(=O)N[C@@H](Cc1ccccc1)C(=O)NCC(=O)N[C@@H](CCCNC(=N)N)C(=O)N[C@@H](CCCNC(=N)N)C(=O)N[C@@H](CC(N)=O)C(=O)N[C@@H](CO)C(=O)N[C@@H](CO)C(=O)N[C@@H](CO)C(=O)N[C@@H](CO)C(=O)NCC(=O)N[C@@H](CO)C(=O)N[C@@H](CO)C(=O)NCC(=O)N[C@@H](C)C(=O)NCC(=O)N[C@@H](CCC(N)=O)C(=O)O` [human γ3-MSH (wt)] (H-YVMGHFRWDRFGRRNSSSSGSSGAGQ-OH): the “plasma stability, fold increased over human γ2-MSH” value in data set [3] is on record as more than 100 fold.
As for “Pyr-ERTKR-AMC (L-pyroglutamyl-(arginine-threonine-lysine-arginine)-7-amino-3-methylcoumarin)”, the cleaved bond entry in the data set with TA PC2 (with mouse 7B2) and in the data set with TA PC1/3 was “R-AMC” throughout. Besides, the not cleaved result in data set [4] is “no activity across the entire pH range”.
As to YVMSHFRWNKFGRRNSSSSSGGH, the not cleaved entry in data set [5] is “completely stable in CSF (up to 72 h)”.
Consider YVMSHFRWNKFGRRNSSSSSSSSSSSSSGGH, for which the not cleaved result in data set [5] is given as “completely stable in CSF (up to 72 h)”.
With YVMSHFRWNKFGRRNSSSSSSSSSSSSSSSSSSGGH, the not cleaved entry in data set [5] was “completely stable in CSF (up to 72 h)”.
